Tests used:
[1] = target: CDK1/Cyclin B1 (Homo sapiens (Human), UniProt P06493); experiment: CDK1/Cyclin B1 ADP-Glo Kinase Assay; format: biochemical; settings: 80 uM ATP
Method: CDK1/Cyclin B1 ADP-Glo Kinase Assay
(§1) The purpose of CDK1/Cyclin B1 assay is to evaluate the inhibition (% inhibition and IC50 values) of small molecule inhibitors by using a Luminescent based ADP-Glo assay. CDK1/Cyclin B1 catalyzes the production of ADP from ATP. ADP-Glo assay monitors ADP producing biochemical reactions. ADP-Glo is performed in 2 steps upon completion of kinase reaction: a combined termination of kinase reaction and depletion of remaining ATP in the first step, and conversion of generated ADP to ATP and the newly produced ATP to light output using luciferase/luciferin reaction in the second step. The luminescent signal generated is proportional to the ADP concentration produced and is correlated with the kinase activity. CDK1/Cyclin B1 was purchased from Carna (Cat 04-102). Typical reaction solutions (10 uL final reaction volume) contained 2% DMSO (f inhibitor), 10 mM MgCl2, 1 mM EGTA, 0.05% BSA, 2 mM DTT, 80 uM ATP (ATP Km=78.6 uM), 0.01% Brig-35, 0.75 uM substrate, and 4.917 nM CDK1/Cyclin Bl enzyme complex in 50 mM HEPES buffer at pH 7.5. The assay was initiated with the addition of ATP-containing substrate solution, following a 30-minute pre-incubation of enzyme and inhibitor at room temperature in the reaction mixture. The reaction was stopped after 90 minutes at room temperature by the addition of 10 uL of ADP-GLO Reagent. After a 90 minute incubation, 20 uL of Kinase Detection Reagent was added. Samples were incubated for 40 minutes, after which plate well luminescence was measured on a Envision microplate reader. The IC50 determinations were made from a plot of the fractional velocity as a function of inhibitor concentration fit to the 4 parameters IC50 equation.

[2] = target: CDK2/Cyclin E1 full length (Homo sapiens (Human), UniProt P24941); experiment: CDK2/Cyclin E1 Full Length ADP-Glo Kinase Assay; format: biochemical; settings: 20 uM ATP, read-out: CDK2/ CyclinE1 IC50
Method: CDK2/Cyclin E1 Full Length ADP-Glo Kinase Assay
The purpose of CDK2/Cyclin E1 assay is to evaluate the inhibition (% inhibition and IC50 values) of small molecule inhibitors by using a Luminescent based ADP-Glo assay. CDK2/Cyclin E1 full length catalyzes the production of ADP from ATP. ADP-Glo assay monitors ADP producing biochemical reactions. ADP-Glo is performed in 2 steps upon completion of kinase reaction: a combined termination of kinase reaction and depletion of remaining ATP in the first step, and conversion of generated ADP to ATP and the newly produced ATP to light output using luciferase/luciferin reaction in the second step. The luminescent signal generated is proportional to the ADP concentration produced and is correlated with the kinase activity. CDK2/Cyclin E1 was purchased from Eurofins (Cat 14-475M). Typical reaction solutions (10 uL final reaction volume) contained 2% DMSO (f inhibitor), 10 mM MgCI2, 1 mM EGTA, 0.05% BSA, 2 mM DTT, 20 uM ATP (ATP Km=64.78 uM), 0.01% Brig-35, 0.75 uM substrate, and 0.328 nM wild-type full length CDK2/Cyclin E1 enzyme complex in 50 mM HEPES buffer at pH 7.5. The assay was initiated with the addition of ATP-containing substrate solution, following a 30-minute pre-incubation of enzyme and inhibitor at room temperature in the reaction mixture. The reaction was stopped after 90 minutes at room temperature by the addition of 10 uL of ADP-GLO Reagent. After a 90 minute incubation, 20 uL of Kinase Detection Reagent was added. Samples were incubated for 40 minutes, after which plate well luminescence was measured on a Envision microplate reader. The IC50 determinations were made from a plot of the fractional velocity as a function of inhibitor concentration fit to the 4 parameters IC50 equation.

[3] = target: CDK6/Cyclin D3 (Homo sapiens (Human), UniProt Q00534); experiment: CDK6/Cyclin D3 ADP-Glo Kinase Assay; format: biochemical; settings: 100 uM ATP, read-out: CDK6/ CyclinD3 IC50
Method: CDK6/Cyclin D3 ADP-Glo Kinase Assay
as §1, with “of the CDK6/Cyclin D3” for “of CDK1/Cyclin B1”, “values) in the presence” for “values)”, “assay. CDK6/Cyclin D3” for “assay. CDK1/Cyclin B1”, “activity. CDK6/Cyclin D3” for “activity. CDK1/Cyclin B1”, “from Carna. […]” for “from Carna (Cat 04-102). Typical reaction solutions (10 uL final reaction volume) contained 2% DMSO (f inhibitor), 10 mM MgCl2, 1 mM EGTA, 0.05% BSA, 2 mM DTT, 80 uM ATP (ATP Km=78.6 uM), 0.01% Brig-35, 0.75 uM substrate, and 4.917 nM CDK1/Cyclin Bl enzyme complex in 50 mM HEPES buffer at pH 7.5.”, “a 90-minute” for “a 90 minute”

[4] = tested on: MCF-7 cells; experiment: Cell Growth Inhibition, MCF-7 (CellTiterGlo, 6 days); format: cell-based; settings: MCF-7, 6-day treatment, CellTiterGlo 2.0
Description: (§2) MCF-7 and OVCAR-3 cells were used to evaluate the anti-proliferation activity of the CDK inhibitors. MCF-7 (ATCC, HTB-22) cells are epithelial cells from a patient with ER+ metastatic adenocarcinoma. OVCAR-3 (ATCC, HTB-161) cells were derived from malignant ascites of a patient with ovarian cancer and are known to have CCNE1 amplification. Both cell lines were maintained in RPMI media supplemented with 10% fetal bovine serum. For cell growth inhibition assay, CDK inhibitors in DMSO solution were dispensed with either Echo 655 (Beckman Coulter) or Tecan D300e (HP) into 384-well plates (Corning #3765) and the 384-well plates were UV-sterilized prior to the assay. The inhibitors were typically tested in the 10-10,000 nM concentration range with half-log serial dilutions. MCF-7 or OVCAR-3 (500 cells/30 μL/well) were added to each well using Multidrop Combi (ThermoFisher) using standard cassettes. The assay plates with cells were cultured at 37° C., 5% CO2 for 6 days. At the end of the 6-day treatment, 30 μL of CellTiterGlo 2.0 (Promega) was added to each well and the luminescent signal was read using CLARIOstar plus (BMG). The percentage of cell growth inhibition (% CGI) was calculated using the following formula % CGI=100−100×luminescencesample/luminescencecontrol. The half maximal inhibitory concentration (IC50) was determined by nonlinear curve fitting (four parameters, variable slope).

[5] = target: CDK4/Cyclin D1 (Homo sapiens (Human), UniProt P11802); experiment: CDK4/Cyclin D1 CHEF Assay (AQT0258 peptide); format: biochemical; settings: 200 uM ATP, read-out: CDK4/ CyclinD1 AQT IC50
Description: CDK4/Cyclin D1 CHEF Assay
The purpose of CDK4/Cyclin Dl assay is to evaluate the inhibition (% inhibition and IC50 values) of small molecule inhibitors by using a Chelation-Enhance Fluorescence (CHEF) assay. In a CHEF assay, phosphorylation of a peptide substrate results in proportional increase in fluorescence. CHEF kinase assay use peptide substrates containing a synthetic alpha-amino acid with a side chain bearing an 8-hydroxyquinoline derivative (sulfonamido-oxide, Sox). Upon phosphorylation of a nearby serine, threonine or tyrosine and in the presence of Mg(II), the spectral properties of the Sox residue are altered, emitting 485 nm wavelength light when excited with a 360 nm wavelength light source. CDK4/Cyclin D1 catalyzes the phosphoryl transfer to the SOX-labeled substrate peptide AQT0258 from Assayquant Technologies. Typical reaction solutions contained 2% DMSO (+/−inhibitor), 10 mM MgCl2, 1 mM DTT, 200 uM ATP (ATP Km=195.2 uM), 0.012% Brig-35, 10 uM AQT0258 peptide, 0.02% BSA, 1% Glycerol, 0.55 mM EGTA, 2.5 nM CDK4/Cyclin D1 in 54 mM HEPES buffer at pH 7.5. The reaction was initiated with the addition of substrate solution, following a 30-minute pre-incubation of enzyme and inhibitor at 22° C. in the reaction mix. Reactions were allowed to proceed for 3 hrs at 22° C., followed by fluorescence read of the reaction. The IC50 determinations were made from a plot of the fractional velocity as a function of inhibitor concentration fit to the 4 parameters IC50 equation.

[6] = tested on: OVCAR-3 cells; experiment: Cell Growth Inhibition, OVCAR-3 (CellTiterGlo, 6 days); format: cell-based; settings: OVCAR-3, 6-day treatment, CellTiterGlo 2.0
Description: as §2

Sequence of CDK4/Cyclin D1 (P11802 whole entry): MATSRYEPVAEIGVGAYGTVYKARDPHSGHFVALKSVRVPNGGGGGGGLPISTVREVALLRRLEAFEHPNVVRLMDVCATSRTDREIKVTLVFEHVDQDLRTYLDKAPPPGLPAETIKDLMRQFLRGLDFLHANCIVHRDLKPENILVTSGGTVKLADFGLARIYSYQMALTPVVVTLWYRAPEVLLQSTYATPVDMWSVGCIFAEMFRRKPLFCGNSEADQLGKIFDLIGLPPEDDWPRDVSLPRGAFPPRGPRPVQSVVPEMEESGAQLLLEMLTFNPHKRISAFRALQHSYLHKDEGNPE
Sequence of CDK4/Cyclin D1 (P24385 whole entry partner): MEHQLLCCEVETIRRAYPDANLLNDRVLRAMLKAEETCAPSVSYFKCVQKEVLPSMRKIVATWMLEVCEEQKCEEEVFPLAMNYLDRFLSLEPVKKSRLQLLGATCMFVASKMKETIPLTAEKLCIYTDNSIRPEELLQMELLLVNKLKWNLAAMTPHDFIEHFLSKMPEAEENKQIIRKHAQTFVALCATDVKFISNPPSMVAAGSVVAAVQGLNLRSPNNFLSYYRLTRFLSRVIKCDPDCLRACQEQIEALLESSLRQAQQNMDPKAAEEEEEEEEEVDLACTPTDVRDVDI
Sequence of CDK1/Cyclin B1 (P06493 whole entry): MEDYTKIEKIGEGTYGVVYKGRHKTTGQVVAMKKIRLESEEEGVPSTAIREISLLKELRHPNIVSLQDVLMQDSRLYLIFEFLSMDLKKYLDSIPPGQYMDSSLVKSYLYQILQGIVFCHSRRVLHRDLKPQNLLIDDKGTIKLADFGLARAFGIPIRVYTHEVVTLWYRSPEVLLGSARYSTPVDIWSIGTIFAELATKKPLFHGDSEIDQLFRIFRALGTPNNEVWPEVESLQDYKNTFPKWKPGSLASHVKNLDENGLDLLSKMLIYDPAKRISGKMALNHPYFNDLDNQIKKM
Sequence of CDK1/Cyclin B1 (P14635 whole entry partner): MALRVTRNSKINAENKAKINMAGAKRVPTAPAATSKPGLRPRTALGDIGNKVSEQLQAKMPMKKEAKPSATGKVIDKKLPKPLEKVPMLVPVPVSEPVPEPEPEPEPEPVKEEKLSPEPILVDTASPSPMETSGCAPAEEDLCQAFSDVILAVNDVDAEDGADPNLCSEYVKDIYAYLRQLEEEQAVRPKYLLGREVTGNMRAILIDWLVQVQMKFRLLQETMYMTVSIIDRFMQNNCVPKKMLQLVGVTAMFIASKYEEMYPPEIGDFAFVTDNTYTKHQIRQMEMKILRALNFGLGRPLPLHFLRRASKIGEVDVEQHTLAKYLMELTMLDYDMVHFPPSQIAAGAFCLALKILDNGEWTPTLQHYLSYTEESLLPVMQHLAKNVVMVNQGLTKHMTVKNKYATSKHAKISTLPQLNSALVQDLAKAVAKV
Sequence of CDK6/Cyclin D3 (Q00534 whole entry): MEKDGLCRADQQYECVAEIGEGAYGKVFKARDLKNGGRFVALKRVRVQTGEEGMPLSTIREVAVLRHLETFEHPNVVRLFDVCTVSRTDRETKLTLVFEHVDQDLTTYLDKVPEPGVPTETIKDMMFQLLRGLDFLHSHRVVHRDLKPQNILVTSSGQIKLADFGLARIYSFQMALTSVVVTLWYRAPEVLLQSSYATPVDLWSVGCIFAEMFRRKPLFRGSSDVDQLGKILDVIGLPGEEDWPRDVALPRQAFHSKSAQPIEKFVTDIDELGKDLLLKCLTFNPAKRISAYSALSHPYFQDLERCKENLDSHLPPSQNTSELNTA
Sequence of CDK6/Cyclin D3 (P30281 whole entry partner): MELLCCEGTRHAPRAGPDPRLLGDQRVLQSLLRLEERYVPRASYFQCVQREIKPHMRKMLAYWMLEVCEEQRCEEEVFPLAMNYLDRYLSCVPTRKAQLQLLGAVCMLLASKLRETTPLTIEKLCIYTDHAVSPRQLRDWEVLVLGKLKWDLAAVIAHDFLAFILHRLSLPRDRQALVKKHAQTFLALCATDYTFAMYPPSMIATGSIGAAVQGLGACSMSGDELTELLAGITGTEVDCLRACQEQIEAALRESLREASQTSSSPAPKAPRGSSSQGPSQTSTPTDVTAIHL

Structure (SMILES) | IC50 [1] | IC50 [2] | IC50 [3] | IC50 ([4]; Homo sapiens, MCF7, 144 h) | IC50 [5] | IC50 ([6]; Homo sapiens, 144 h) | IC50 [4] | IC50 [6]
O[C@@H]1COCC[C@H]1Nc1ncc2cc(C(F)F)cc(N3CC(F)(F)C4(CNC4)C3)c2n1 (racemic) [Example 117, (3S,4R)-4-((8-(8,8-difluoro-2,6-diazaspiro[3.4]octan-6-yl)-6-(difluoromethyl)quinazolin-2-yl)amino)tetrahydro-2H-pyran-3-ol] | > 2000 nM | < 200 nM | < 200 nM | 500 to 2000 nM | < 200 nM | > 2000 nM | – | –
CS(=O)(=O)N1CC[C@@H](Nc2ncc3cc(C(F)F)cc(N4CC(F)(F)C5(CNC5)C4)c3n2)[C@H](O)C1 (racemic) [Example 118, (3R,4R)-4-((8-(8,8-difluoro-2,6-diazaspiro[3.4]octan-6-yl)-6-(difluoromethyl)quinazolin-2-yl)amino)-1-(methylsulfonyl)piperidin-3-ol] | 500 to 2000 nM | < 200 nM | < 200 nM | – | < 200 nM | > 2000 nM | – | –
CC(=O)N1CCC2(CCC(c3cccc4cnc(NC5CCN(S(C)(=O)=O)CC5)nc34)C2)C1 (stereo not shown) [Example 35] | 200 to 500 nM | < 200 nM | < 200 nM | 500 to 2000 nM | – | > 2000 nM | – | –
CN1C[C@@H]2C(Nc3ncc4cc(C(F)F)cc(N5CCC6(CCN(S(C)(=O)=O)C6)C5)c4n3)[C@@H]2C1 (stereo partly drawn) [Example 56, 6-(difluoromethyl)-N-((1R,5S,6s)-3-methyl-3-azabicyclo[3.1.0]hexan-6-yl)-8-(7-(methylsulfonyl)-2,7-diazaspiro[4.4]nonan-2-yl)quinazolin-2-amine] | > 2000 nM | > 2000 nM | > 2000 nM | – | 200 to 500 nM | – | > 2000 nM | > 2000 nM
CN1Cc2ccc(Nc3ncc4cc(C(F)F)cc(N5CC6(CN(C)C6)C5)c4n3)cc2C1 [Example 57, 6-(difluoromethyl)-8-(6-methyl-2,6-diazaspiro[3.3]heptan-2-yl)-N-(2-methylisoindolin-5-yl)quinazolin-2-amine] | > 2000 nM | < 200 nM | < 200 nM | 500 to 2000 nM | < 200 nM | 500 to 2000 nM | – | –
CN1CC2(CC(c3cc(C(F)F)cc4cnc(NC5CCN(S(C)(=O)=O)CC5)nc34)C2)C1 [Example 67, 6-(difluoromethyl)-8-(2-methyl-2-azaspiro[3.3]heptan-6-yl)-N-(1-(methylsulfonyl)piperidin-4-yl)quinazolin-2-amine] | < 200 nM | < 200 nM | – | < 200 nM | – | < 200 nM | – | –
COC1CC2(C1)CC(c1cccc3cnc(NC4CCN(S(C)(=O)=O)CC4)nc13)C2 (stereo not shown) [Example 107, 8-(6-methoxyspiro[3.3]heptan-2-yl)-N-(1-(methylsulfonyl)piperidin-4-yl)quinazolin-2-amine] | 500 to 2000 nM | < 200 nM | < 200 nM | – | < 200 nM | – | – | –
COC1CC2(C1)CC(c1cc(C(F)F)cc3cnc(NC4CCN(S(C)(=O)=O)CC4)nc13)C2 (stereo not shown) [Example 108, 6-(difluoromethyl)-8-(6-methoxyspiro[3.3]heptan-2-yl)-N-(1-(methylsulfonyl)piperidin-4-yl)quinazolin-2-amine] | < 200 nM | < 200 nM | < 200 nM | – | < 200 nM | – | – | –
Cn1cc(S(=O)(=O)N2CCC(Nc3ncc4cccc(N5CC(O)(C(F)F)C5)c4n3)CC2)cn1 [Example 119, 3-(difluoromethyl)-1-(2-((1-((1-methyl-1H-pyrazol-4-yl)sulfonyl)piperidin-4-yl)amino)quinazolin-8-yl)azetidin-3-ol] | < 200 nM | < 200 nM | < 200 nM | – | < 200 nM | 500 to 2000 nM | – | –
CS(=O)(=O)N1CCC(Nc2ncc3cccc(C4CC5(CNCC5(F)F)C4)c3n2)CC1 (stereo not shown) [Example 122, 8-(8,8-difluoro-6-azaspiro[3.4]octan-2-yl)-N-(1-(methylsulfonyl)piperidin-4-yl)quinazolin-2-amine] | < 200 nM | < 200 nM | < 200 nM | – | < 200 nM | – | – | –
